Legend:
Type in all cases: in vivo
[1] = test system: Galium aparine; assay: Greenhouse preemergence herbicidal activity; conditions: GALAP, 20 DAT
Protocol: (§1) The test plants have been seeded, separately for each species, in plastic containers in sandy loamy soil containing 5% of organic matter.
(§2) The containers were irrigated gently to promote germination and growth and subsequently covered with transparent plastic hoods until the plants had rooted.
(§3) The plants have been cultivated due to their individual requirements at 10-25° C. and 20-35° C. The plants were irrigated due to their necessity.
(§4) The racemic mixture (±)-2-exo-(2-M ethylbenzyloxy)-1-methyl-4-isopropyl-7-oxabicyclo[2.2.1]heptane was used as herbicide A and formulated as emulsifiable concentrates with an active ingredient concentration of 50 g/l, 100 g/I or 750 g/I respectively.
(§5) Imazamox (herbicide B.1) was used as a water dispersible granule (70% WG).
(§6) In the following experiments, the herbicidal activity for the individual herbicidal compositions (solo and mixture applications) was assessed 20 days after treatment (DAT).
(§7) The evaluation for the damage on undesired weeds caused by the chemical compositions was carried out using a scale from 0 to 100%, compared to the untreated control plants. Here, 0 means no damage and 100 means complete destruction of the plants.
(§8) E=X+Y−(X·Y/100) where X=effect in percent using herbicide A at an application rate a; • Y=effect in percent using herbicide B at application rate b; • E=expected effect (in %) of herbicide A+herbicide B at application rates a+b.

[2] = test system: Amaranthus retroflexus; assay: Greenhouse preemergence herbicidal activity; conditions: AMARE
Protocol: as §1, §2, §3, §4, §5, §6, §7, §8

[3] = test system: Lolium multiflorum; assay: Greenhouse preemergence herbicidal activity; conditions: LOLMU
Protocol: as §1, §2, §3, §4, §5, §6, §7, §8

[4] = test system: Chenopodium album; assay: Greenhouse preemergence herbicidal activity; conditions: CHEAL, 20 DAT
Protocol: as §1, §2, §3, §4, §5, §6, §7, §8

[5] = test system: Avena fatua; assay: Greenhouse preemergence herbicidal activity; conditions: AVEFA
Protocol: as §1, §2, §3, §4, §5, §6, §7, §8

[6] = test system: Abutilon theophrasti; assay: Greenhouse preemergence herbicidal activity; conditions: ABUTH, 20 DAT
Protocol: as §1, §2, §3, §4, §5, §6, §7, §8

[7] = test system: Echinochloa crus-galli; assay: Greenhouse preemergence herbicidal activity; conditions: ECHCG, 20 DAT
Protocol: as §1, §2, §3, §4, §5, §6, §7, §8

[8] = test system: Polygonum convolvulus; assay: Greenhouse preemergence herbicidal activity; conditions: POLCO, 20 DAT
Protocol: as §1, §2, §3, §4, §5, §6, §7, §8

[9] = test system: Geranium dissectum; assay: Greenhouse preemergence herbicidal activity; conditions: GERDI, 20 DAT
Protocol: as §1, §2, §3, §4, §5, §6, §7, §8

[10] = test system: Setaria viridis; assay: Greenhouse preemergence herbicidal activity; conditions: SETVI
Protocol: as §1, §2, §3, §4, §5, §6, §7, §8

[11] = test system: Stellaria media; assay: Greenhouse preemergence herbicidal activity; conditions: STEME
Protocol: as §1, §2, §3, §4, §5, §6, §7, §8

[12] = test system: Anthemis arvensis; assay: Greenhouse preemergence herbicidal activity; conditions: ANTAR
Protocol: as §1, §2, §3, §4, §5, §6, §7, §8

[13] = test system: Sorghum halepense; assay: Greenhouse preemergence herbicidal activity; conditions: SORHA, 20 DAT
Protocol: as §1, §2, §3, §4, §5, §6, §7, §8

[14] = test system: Chenopodium album; assay: Greenhouse postemergence herbicidal activity; conditions: CHEAL
Protocol: as §1
(§9) For the post emergence treatment, the plants were first grown to the 2 leaf station (GS 12). Here, the herbicidal compositions were suspended or emulsified in water as distribution medium and sprayed using finely distributing nozzles.
as §3, §4, §5, §6, §7, §8

[15] = test system: Avena fatua; assay: Greenhouse postemergence herbicidal activity; conditions: AVEFA, 20 DAT
Protocol: as §1, §9, §3, §4, §5, §6, §7, §8

[16] = test system: Polygonum convolvulus; assay: Greenhouse postemergence herbicidal activity; conditions: POLCO
Protocol: as §1, §9, §3, §4, §5, §6, §7, §8

[17] = test system: Setaria viridis; assay: Greenhouse postemergence herbicidal activity; conditions: SETVI
Protocol: as §1, §9, §3, §4, §5, §6, §7, §8

[18] = test system: Anthemis arvensis; assay: Greenhouse postemergence herbicidal activity; conditions: ANTAR, 20 DAT
Protocol: as §1, §9, §3, §4, §5, §6, §7, §8

[19] = test system: Sorghum halepense; assay: Greenhouse postemergence herbicidal activity; conditions: SORHA, 20 DAT
Protocol: as §1, §9, §3, §4, §5, §6, §7, §8

[20] = imazamox solo 4.4 g ai/ha, 20 DAT
[21] = imazamox solo 4.4 g ai/ha, 20 DAT (line of 25 + 4.4)
[22] = imazamox solo 8.8 g ai/ha, 20 DAT
[23] = imazamox solo 17.5 g ai/ha, 20 DAT
[24] = imazamox solo 17.5 g ai/ha, 20 DAT (line of 100 + 17.5)
[25] = imazamox solo 35 g ai/ha, 20 DAT
[26] = imazamox solo 35 g ai/ha, 20 DAT (line of 200 + 35)
[27] = imazamox solo 8.8 g ai/ha, 20 DAT (line of 50 + 8.8)
[28] = imazamox solo 4.4 g ai/ha, 20 DAT (line of 43.8 + 4.4)
[29] = herbicide A solo 25 g ai/ha, 20 DAT
[30] = herbicide A solo 37.5 g ai/ha, 20 DAT
[31] = herbicide A solo 75 g ai/ha, 20 DAT
[32] = herbicide A solo 100 g ai/ha, 20 DAT
[33] = herbicide A solo 150 g ai/ha, 20 DAT
[34] = herbicide A solo 200 g ai/ha, 20 DAT
[35] = herbicide A solo 300 g ai/ha, 20 DAT
[36] = herbicide A solo 125 g ai/ha, 20 DAT
[37] = herbicide A solo 50 g ai/ha, 20 DAT
[38] = herbicide A solo 250 g ai/ha, 20 DAT
[39] = herbicide A solo 62.5 g ai/ha, 20 DAT
[40] = herbicide A solo 43.8 g ai/ha, 20 DAT

COCc1cnc(C2=NC(C)(C(C)C)C(=O)N2)c(C(=O)O)c1 (racemic) [imazamox, 2-[(RS)-4-isopropyl-4-methyl-5-oxo-2-imidazolin-2-yl]-5-methoxymethylnicotinic acid]
herbicidal activity ([1]; imazamox solo 4.4 g ai/ha): 0% | herbicidal activity ([1]; imazamox solo 35 g ai/ha): 75% | herbicidal activity [2, 20]: 75% | herbicidal activity [2, 21]: 75% | herbicidal activity [2, 22]: 90% | herbicidal activity [2, 23]: 95% | herbicidal activity [2, 24]: 95% | herbicidal activity [2, 25]: 95% | herbicidal activity [2, 26]: 95% | herbicidal activity [3, 20]: 0% | herbicidal activity [3, 21]: 0% | herbicidal activity [3, 22]: 70% | herbicidal activity ([4]; imazamox solo 4.4 g ai/ha): 0% | herbicidal activity [5, 22]: 20% | herbicidal activity [5, 27]: 20% | herbicidal activity [5, 23]: 65% | herbicidal activity [5, 24]: 65% | herbicidal activity ([6]; imazamox solo 17.5 g ai/ha): 70% | herbicidal activity ([6]; imazamox solo 35 g ai/ha): 75% | herbicidal activity ([7]; imazamox solo 4.4 g ai/ha): 30% | herbicidal activity ([7]; imazamox solo 8.8 g ai/ha): 40% | herbicidal activity ([8]; imazamox solo 8.8 g ai/ha): 25% | herbicidal activity ([9]; imazamox solo 8.8 g ai/ha): 0% | herbicidal activity [10, 21]: 20% | herbicidal activity ([10]; imazamox solo 4.4 g ai/ha, 20 DAT (line of 62.5 + 4.4)): 60% | herbicidal activity [10, 22]: 65% | herbicidal activity [11, 22]: 80% | herbicidal activity [11, 27]: 80% | herbicidal activity [11, 23]: 95% | herbicidal activity [12, 20]: 0% | herbicidal activity [12, 22]: 0% | herbicidal activity [12, 23]: 20% | herbicidal activity [12, 25]: 65% | herbicidal activity [12, 26]: 65% | herbicidal activity ([13]; imazamox solo 4.4 g ai/ha): 10% | herbicidal activity [14, 20]: 90% | herbicidal activity [14, 28]: 90% | herbicidal activity [14, 22]: 95% | herbicidal activity ([15]; imazamox solo 4.4 g ai/ha): 70% | herbicidal activity [16, 20]: 90% | herbicidal activity [16, 23]: 95% | herbicidal activity ([16]; imazamox solo 17.5 g ai/ha, 20 DAT (line of 175 + 17.5)): 95% | herbicidal activity [16, 25]: 95% | herbicidal activity [17, 20]: 95% | herbicidal activity [17, 28]: 95% | herbicidal activity ([18]; imazamox solo 35 g ai/ha): 98% | herbicidal activity ([19]; imazamox solo 4.4 g ai/ha): 90% | herbicidal activity ([19]; imazamox solo 17.5 g ai/ha): 95% | herbicidal activity ([19]; imazamox solo 35 g ai/ha): 98%

(±)-2-exo-(2-Methylbenzyloxy)-1-methyl-4-isopropyl-7-oxabicyclo[2.2.1]heptane [herbicide A]
herbicidal activity ([1]; herbicide A solo 25 g ai/ha): 0% | herbicidal activity ([1]; herbicide A solo 200 g ai/ha): 30% | herbicidal activity [2, 29]: 0% | herbicidal activity [2, 30]: 0% | herbicidal activity [2, 31]: 0% | herbicidal activity [2, 32]: 0% | herbicidal activity [2, 33]: 0% | herbicidal activity [2, 34]: 0% | herbicidal activity [2, 35]: 0% | herbicidal activity [3, 29]: 50% | herbicidal activity [3, 30]: 60% | herbicidal activity [3, 36]: 90% | herbicidal activity ([4]; herbicide A solo 37.5 g ai/ha): 20% | herbicidal activity [5, 37]: 0% | herbicidal activity [5, 31]: 20% | herbicidal activity [5, 32]: 20% | herbicidal activity [5, 38]: 65% | herbicidal activity ([6]; herbicide A solo 100 g ai/ha): 0% | herbicidal activity ([6]; herbicide A solo 200 g ai/ha): 0% | herbicidal activity ([7]; herbicide A solo 62.5 g ai/ha): 98% | herbicidal activity ([7]; herbicide A solo 125 g ai/ha): 98% | herbicidal activity ([8]; herbicide A solo 125 g ai/ha): 0% | herbicidal activity ([9]; herbicide A solo 125 g ai/ha): 70% | herbicidal activity [10, 29]: 75% | herbicidal activity [10, 39]: 98% | herbicidal activity [10, 31]: 98% | herbicidal activity [11, 37]: 20% | herbicidal activity [11, 31]: 20% | herbicidal activity [11, 33]: 30% | herbicidal activity [12, 37]: 0% | herbicidal activity [12, 39]: 0% | herbicidal activity [12, 33]: 0% | herbicidal activity [12, 34]: 0% | herbicidal activity [12, 35]: 0% | herbicidal activity ([13]; herbicide A solo 62.5 g ai/ha): 80% | herbicidal activity [14, 40]: 60% | herbicidal activity [14, 39]: 30% | herbicidal activity [14, 36]: 50% | herbicidal activity ([15]; herbicide A solo 43.8 g ai/ha): 25% | herbicidal activity [16, 39]: 25% | herbicidal activity ([16]; herbicide A solo 175 g ai/ha, 20 DAT): 50% | herbicidal activity [16, 38]: 40% | herbicidal activity ([16]; herbicide A solo 350 g ai/ha, 20 DAT): 50% | herbicidal activity [17, 40]: 75% | herbicidal activity [17, 39]: 85% | herbicidal activity ([18]; herbicide A solo 500 g ai/ha): 65% | herbicidal activity ([19]; herbicide A solo 62.5 g ai/ha): 40% | herbicidal activity ([19]; herbicide A solo 175 g ai/ha): 50% | herbicidal activity ([19]; herbicide A solo 350 g ai/ha): 70%

— patent publication US11219212B2, “Herbicidal composition comprising cinmethylin and imazamox” (BASF Agro B.V., priority 2015, dated 2022)
